Measurements as given in patent US20210246157A1, “CAMPTOTHECIN DERIVATIVES AND PREPARATION METHODS AND APPLICATIONS THEREOF” (priority 2018, published 2021).
Converted amounts (≈) assume the structure as drawn. Read-outs that look alike come from different tables or passages of the source.

How the values were obtained:
[1] = tested on: HT-29; test: Cytotoxicity test (MTT, 72 h); details: Homo sapiens, HT-29, 72 h, read-out: 50% Inhibiting Concentration value (IC50)
Method: (§1) Cells at logarithmic growth period are inoculated in a 96-well plate overnight, then drugs with a certain gradient concentrations are added, and incubation is carried out in a cell culture chamber (5% CO2, 37° C.) for 72 h.

[2] = tested on: K562; test: Cytotoxicity test (MTT, 72 h); details: Homo sapiens, K562, 72 h, read-out: 50% Inhibiting Concentration value (IC50)
Method: (§2) In order to investigate the antitumor activities of the compounds, a variety of tumor cell lines for test are selected. Cells at logarithmic growth period are inoculated in a 96-well plate overnight, then drugs with a certain gradient concentrations are added, and incubation is carried out in a cell culture chamber (5% CO2, 37° C.) for 72 h.

[3] = tested on: A549; test: Cytotoxicity test (MTT, 72 h); details: Homo sapiens, A549, 72 h, read-out: 50% Inhibiting Concentration value (IC50)
Method: as §2

[4] = Solubility test, equilibrium method, UV-visible spectrophotometry; type: physicochemical; details: thermodynamic from solid
Method: The solubility test is carried out by equilibrium method. […] An appropriate amount of the compound is weighed and dissolved in 1 mL of methanol solution to prepare a control solution with a certain concentration (C0). The concentration of test solution is calculated according to the following formula: Cx=(Ax/A0)C0, wherein Cx is concentration of test solution, Ax is absorbance of test solution, C0 is concentration of control solution, and A0 is absorbance of control solution.

[5] = tested on: HCT-116; test: Cytotoxicity test (MTT, 72 h); details: Homo sapiens, HCT-116, 72 h, read-out: 50% Inhibiting Concentration value (IC50)
Method: as §2

[6] = tested on: TPC-1; test: Cytotoxicity test (MTT, 72 h); details: Homo sapiens, TPC1, 72 h, read-out: 50% Inhibiting Concentration value (IC50)
Method: as §1

[7] = tested on: H1975; test: Cytotoxicity test (MTT, 72 h); details: Homo sapiens, NCI-H1975, 72 h, read-out: 50% Inhibiting Concentration value (IC50)
Method: as §2

[8] = tested on: PANC-1; test: Cytotoxicity test (MTT, 72 h); details: Homo sapiens, PANC-1, 72 h, read-out: 50% Inhibiting Concentration value (IC50)
Method: as §1

[9] = tested on: MDA-MB-231; test: Cytotoxicity test (MTT, 72 h); details: Homo sapiens, MDA-MB-231, 72 h, read-out: 50% Inhibiting Concentration value (IC50)
Method: as §2

[10] = tested on: PC3; test: Cytotoxicity test (MTT, 72 h); details: Homo sapiens, PC-3, 72 h, read-out: 50% Inhibiting Concentration value (IC50)
Method: as §2

[11] = tested on: SW-480; test: Cytotoxicity test (MTT, 72 h); details: Homo sapiens, SW480, 72 h, read-out: 50% Inhibiting Concentration value (IC50)
Method: as §1

[12] = tested on: BGC-823; test: Cytotoxicity test (MTT, 72 h); details: Homo sapiens, BGC-823, 72 h, read-out: 50% Inhibiting Concentration value (IC50)
Method: as §2

[13] = tested on: HepG2; test: Cytotoxicity test (MTT, 72 h); details: Homo sapiens, HepG2, 72 h, read-out: 50% Inhibiting Concentration value (IC50)
Method: as §2

[14] = tested on: SKOV-3; test: Cytotoxicity test (MTT, 72 h); details: Homo sapiens, SK-OV-3, 72 h, read-out: 50% Inhibiting Concentration value (IC50)
Method: as §1

[15] = tested on: ECA-109; test: Cytotoxicity test (MTT, 72 h); details: Homo sapiens, ECa-109, 72 h, read-out: 50% Inhibiting Concentration value (IC50)
Method: as §2

[16] = tested on: 143B; test: Cytotoxicity test (MTT, 72 h); details: Homo sapiens, read-out: 50% Inhibiting Concentration value (IC50)
Method: as §2

[17] = tested on: Hela; test: Cytotoxicity test (MTT, 72 h); details: Homo sapiens, read-out: 50% Inhibiting Concentration value (IC50)
Method: as §2

[18] = aqueous with cosolvent or surfactant or cyclodextrin
[19] = aqueous buffer, PBS pH 7.4, read-out: Solubility in PBS (pH = 7.4)
[20] = aqueous with cosolvent or surfactant or cyclodextrin, 0.1% aqueous solution of Tween-80, read-out: Solubility in 0.1% Tween-80
[21] = saline or isotonic, normal saline, read-out: Solubility in Normal Saline (NS)
[22] = water, read-out: Solubility in Water

SMILES	IC50 [1] [µM]	IC50 [2] [µM]	IC50 [3] [µM]	IC50 [5] [µM]	IC50 [6] [µM]	IC50 [7] [µM]	IC50 [8] [µM]	IC50 [9] [µM]	IC50 [10] [µM]	IC50 [11] [µM]	IC50 [12] [µM]	IC50 [13] [µM]	IC50 [14] [µM]	IC50 [15] [µM]	IC50 [16] [µM]	IC50 [17] [µM]	solubility [4, 19] [µg/mL]	solubility [4, 20] [µg/mL]	solubility [4, 21] [µg/mL]	solubility [4, 22] [µg/mL]	further results
CCc1c2c(nc3ccc(OC(=O)OCCOCCOCc4cn(CCO[C@H]5O[C@@H](CO)[C@H](O)[C@@H](O)[C@@H]5O)nn4)cc13)-c1cc3c(c(=O)n1C2)COC(=O)[C@]3(O)CC [Compound 57]	1.68	1.16	20.9	1.39	14.6	12.1	22.1	4.29	17.4	0.164	0.137	5.15	6.17	1.4	10.1	15.1					solubility [4, 18]: 6460 µg/mL (≈ 7950 µM); solubility ([4]; pH 7.4, aqueous buffer): 361 µg/mL (≈ 444 µM); solubility ([4]; saline or isotonic): 4290 µg/mL (≈ 5290 µM); solubility ([4]; water): 178 µg/mL (≈ 219 µM)
CCc1c2c(nc3ccc(OC(=O)OCCOCCOCCOCCOCc4cn(CCO[C@H]5O[C@@H](CO)[C@H](O)[C@@H](O)[C@@H]5O)nn4)cc13)-c1cc3c(c(=O)n1C2)COC(=O)[C@]3(O)CC [Compound 59]	1.13	1.39	8.03	1.67	12.6	10.5	9.64	2.28	6.69	1.21	1.01	2.73	3.28	0.939	8.77	9.64					solubility [4, 18]: 1200 µg/mL (≈ 1340 µM); solubility ([4]; pH 7.4, aqueous buffer): 984 µg/mL (≈ 1090 µM); solubility ([4]; saline or isotonic): 854 µg/mL (≈ 949 µM); solubility ([4]; water): 1480 µg/mL (≈ 1650 µM)
CCc1c2c(nc3ccc(OC(=O)NCCOCc4cn([C@H]5O[C@@H](CO)[C@H](O)[C@@H](O)[C@@H]5O)nn4)cc13)-c1cc3c(c(=O)n1C2)COC(=O)[C@]3(O)CC [Compound 66]	5.11	0.703	5.65	0.843	10.2	8.46	6.78	1.35	4.71	0.216	0.18	1.62	1.95	4.26	7.05	6.78	2880 (≈ 3980 µM)	1140 (≈ 1580 µM)	1590 (≈ 2210 µM)	979 (≈ 1350 µM)	
CCc1c2c(nc3ccc(OC(=O)NCCOCCOCc4cn([C@H]5O[C@@H](CO)[C@H](O)[C@@H](O)[C@@H]5O)nn4)cc13)-c1cc3c(c(=O)n1C2)COC(=O)[C@]3(O)CC [Compound 73]	3.16	0.733	5.82	0.879	8.57	7.14	6.99	2.02	4.85	0.862	0.718	2.42	2.91	2.63	5.95	6.99	414 (≈ 540 µM)	1260 (≈ 1650 µM)	1440 (≈ 1880 µM)	3580 (≈ 4670 µM)	
CCc1c2c(nc3ccc(OC(=O)NCCOCCOCc4cn(CCO[C@H]5O[C@@H](CO)[C@H](O)[C@@H](O)[C@@H]5O)nn4)cc13)-c1cc3c(c(=O)n1C2)COC(=O)C3(O)CC (stereo partly shown) [Compound 74]	7.96	2.1	9.42	2.52	8.19	6.82	11.3	5.29	7.85	2.06	1.72	6.35	7.62	6.63	5.69	11.3	565 (≈ 696 µM)	2750 (≈ 3390 µM)	3950 (≈ 4880 µM)	792 (≈ 977 µM)	
